Assay results published in the supplement of paper PMC10307832.

Experiments:
Test in all cases: relative viability (nuclei count vs DMSO), 5 days (fraction); higher = more cells survive
[1] = compound: CN1CCN(c2ccc3nc(-c4c(N)c5c(F)cccc5[nH]c4=O)[nH]c3c2)CC1 [Dovitinib] + CC(C)C[C@H](NC(=O)[C@H](Cc1ccccc1)NC(=O)c1cnccn1)B(O)O [Bortezomib] (partner 0.002 µM)
Summary of the method: (§1)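 Medians of duplicate plates are given as relative viability. That measure is the nuclei count in treated wells divided by the count in vehicle wells. Counts were taken on 4× images of lung cancer cell lines in 1536-well plates, 5 days after pin-tool dosing the day after seeding with one drug alone or a fixed anchor-drug dose plus five library-drug doses (not always all listed) in √10 steps.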

[2] = compound: CN1CCN(c2ccc3nc(-c4c(N)c5c(F)cccc5[nH]c4=O)[nH]c3c2)CC1 [Dovitinib] + CC1(C)CCC(c2ccc(Cl)cc2)=C(CN2CCN(c3ccc(C(=O)NS(=O)(=O)c4ccc(N[C@H](CCN5CCOCC5)CSc5ccccc5)c(S(=O)(=O)C(F)(F)F)c4)cc3)CC2)C1 [Navitoclax] (partner 0.5 µM)
Summary of the method: as §1

[3] = compound: CN1CCN(c2ccc3nc(-c4c(N)c5c(F)cccc5[nH]c4=O)[nH]c3c2)CC1 [Dovitinib] + Cc1nc(Nc2ncc(C(=O)Nc3c(C)cccc3Cl)s2)cc(N2CCN(CCO)CC2)n1 [Dasatinib] (partner 0.075 µM)
Summary of the method: as §1

[4] = compound: CN1CCN(c2ccc3nc(-c4c(N)c5c(F)cccc5[nH]c4=O)[nH]c3c2)CC1 [Dovitinib] + CCNC(=O)c1noc(-c2cc(C(C)C)c(O)cc2O)c1-c1ccc(CN2CCOCC2)cc1 [Luminespib] (partner 0.01 µM)
Summary of the method: as §1

Cell Line	relative viability ([1]; first compound 0.02 µM)	relative viability ([1]; first compound 0.06325 µM)	relative viability ([1]; first compound 0.2 µM)	relative viability ([1]; first compound 0.6325 µM)	relative viability ([1]; first compound 2 µM)	relative viability ([2]; first compound 0.02 µM)	relative viability ([2]; first compound 0.06325 µM)	relative viability ([2]; first compound 0.2 µM)	relative viability ([2]; first compound 0.6325 µM)	relative viability ([2]; first compound 2 µM)	relative viability ([3]; first compound 0.02 µM)	relative viability ([3]; first compound 0.06325 µM)	relative viability ([3]; first compound 0.2 µM)	relative viability ([3]; first compound 0.6325 µM)	relative viability ([3]; first compound 2 µM)	relative viability ([4]; first compound 0.02 µM)	relative viability ([4]; first compound 0.06325 µM)	relative viability ([4]; first compound 0.2 µM)	relative viability ([4]; first compound 0.6325 µM)	relative viability ([4]; first compound 2 µM)
NCI-H1734	0.845	0.941	0.933	0.948	0.87	0.876	0.826	0.849	0.851	0.822	0.431	0.501	0.436	0.439	0.452	0.177	0.231	0.185	0.182	0.198
NCI-H1755	0.97	0.923	0.957	0.928	0.955	1.02	1	1.02	0.992	1.05	0.446	0.388	0.45	0.393	0.443	0.41	0.305	0.417	0.54	0.508
NCI-H1792	0.938	0.935	0.998	1.04	0.918	0.671	0.637	0.62	0.751	0.588	0.873	0.738	0.775	0.793	0.803	0.481	0.332	0.516	0.645	0.487
NCI-H1915	0.873	0.963	0.955	0.91	0.986	0.797	0.749	0.767	0.752	0.801	0.317	0.308	0.313	0.278	0.353	0.717	0.897	0.884	0.775	0.781
NCI-H1975	0.389	0.48	0.377	0.373	0.405	1.07	1.01	1.09	1	1.2	0.346	0.348	0.408	0.364	0.453	0.991	0.19	0.422	0.146	0.217
NCI-H1993	1.42	1.14	1.05	1.13	0.941	1.07	0.963	0.965	1.02	0.934	0.748	0.634	0.599	0.684	0.261	0.873	0.716	0.816	0.728	0.346
NCI-H2009	0.816	0.926	0.991	0.974	1.08	1.14	1.15	1.2	1.19	1.19	0.261	0.269	0.336	0.299	0.354	0.974	1.11	0.981	0.973	1.13
NCI-H2023	0.994	0.963	1.24	0.995	0.886	0.996	1.03	1.04	0.945	0.929	0.56	0.565	0.612	0.578	0.58	0.853	0.627	0.809	0.897	0.833
